Measurements published in patent publication US5993846A, “Bioadhesive emulsion preparations for enhanced drug delivery” (Pharmos Corporation, priority 1998, dated 1999).

Tested on: blood clotting
Format: in vivo, Male Sprague Dawley rats
Method: Clotting time of blood droplets obtained by tail […] used to evaluate the systemic effect of LMWH following intracolonic (i.c.) or intravenous (i.v.) treatment of rats. Male Sprague Dawley rats (200-300 g) were used for all of these experiments. Following preliminary studies, experiments were performed between 8:00-13:00 hours in order to reduce diurnal changes in responsiveness to heparins. Rats were anesthetized with 0.3 ml […] (2:1), weighed, and the initial blood clotting time was determined. Each rat was then treated with either Fragmin or control vehicle (i.v. or i.c.). Intravenous treatment was performed by exposing the femoral […] and injecting in the direction of blood flow. Intracolonic treatment was performed by opening the peritoneal cavity at the midline, locating the secum, and injecting into the large intestine, approximately 2 cm from the secum. The time of treatment was considered as T. At the indicated intervals, blood clotting time was determined. The pharmacological activity, denoted PA %, was used to evaluate the relative effect of various routes of administration and dose levels on blood clotting time. PA % was calculated for the individual rats and the values presented are the mean of each group. […] Blood clotting was measured by […] […] The clotting time was measured with a stop watch that was started when the drops were collected.

Low molecular weight heparin [LMWH] was tested, and the “dose-response of blood clotting time and maximal effect, ME %” value (i.v., groups A-C, FIG. 4) was “approximately linear dose-response” and the “TMAX of blood clotting time” value (rat, in vivo) was 1.5 h.
